Paper PMC8308585, “Design and Synthesis of Novel Thiazolo[5,4-d]pyrimidine Derivatives with High Affinity for Both the Adenosine A1 and A2A Receptors, and Efficacy in Animal Models of Depression” (Pharmaceuticals, 2021)

Experiments:
[1] = molecular target: T1, hA1 AR (Homo sapiens, UniProt P30542); assay: Counteraction of NECA-induced decrease of cAMP in CHO cells expressing hA1 AR (GloSensor cAMP assay); assay type: cell-based; conditions: NECA-stimulated activity in CHO cells expressing hA1 AR, mean ± standard error
T1 construct: expressed in transfected cells; host or cells: CHO cells
T1 sequence (P30542 1-326): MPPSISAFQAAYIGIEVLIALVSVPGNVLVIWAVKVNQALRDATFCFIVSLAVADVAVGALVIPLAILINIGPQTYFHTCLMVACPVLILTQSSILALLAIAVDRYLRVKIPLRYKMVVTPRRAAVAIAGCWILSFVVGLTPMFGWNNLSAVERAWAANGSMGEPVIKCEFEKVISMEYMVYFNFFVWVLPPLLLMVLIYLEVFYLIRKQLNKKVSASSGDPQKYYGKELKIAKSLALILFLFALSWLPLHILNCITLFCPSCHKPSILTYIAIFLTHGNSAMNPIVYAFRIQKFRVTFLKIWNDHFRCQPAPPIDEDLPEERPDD
Method: Compound 18 was also tested to evaluate its antagonist behavior at the hA1 AR by assessing its ability to counteract NECA-induced decrease of cAMP accumulation.
The intrinsic activity of understudy compounds was evaluated through the GloSensor cAMP assay, as described previously. Briefly, cells stably expressing the hA1, hA2A, and hA2B ARs and the biosensor were incubated for 2 h at rt in equilibration medium containing 3% v/v GloSensor cAMP reagent stock solution, 10% FBS, and 87% CO2 independent medium. Afterward, cells were dispensed in the wells of a 384-well plate and the reference agonist NECA or the compounds, at different concentrations, were tested. The antagonist profile of compounds was evaluated by assessing their ability to counteract NECA-induced increase (A2A and A2B ARs) or decrease (A1 AR) of cAMP accumulation. Responses were expressed as percentage of the maximal relative luminescence units (RLU).
(§1) Binding data and concentration–response curves were fitted by a nonlinear regression with the Prism program (GraphPAD Prism 7 Software, San Diego, CA, USA). Each concentration was tested 3–5 times in duplicate and the Ki or IC50 (the concentration of antagonists that produces 50% inhibition of the agonist effect) values are given as the mean ± standard error (S.E.).

[2] = molecular target: T2, hA2B AR (Homo sapiens, UniProt P29275); assay: Inhibition of NECA-stimulated adenylyl cyclase activity (cAMP) in CHO cells expressing hA2B AR; assay type: cell-based; conditions: mean ± SEM
T2 construct: expressed in transfected cells; host or cells: CHO cells
T2 sequence (P29275 1-332): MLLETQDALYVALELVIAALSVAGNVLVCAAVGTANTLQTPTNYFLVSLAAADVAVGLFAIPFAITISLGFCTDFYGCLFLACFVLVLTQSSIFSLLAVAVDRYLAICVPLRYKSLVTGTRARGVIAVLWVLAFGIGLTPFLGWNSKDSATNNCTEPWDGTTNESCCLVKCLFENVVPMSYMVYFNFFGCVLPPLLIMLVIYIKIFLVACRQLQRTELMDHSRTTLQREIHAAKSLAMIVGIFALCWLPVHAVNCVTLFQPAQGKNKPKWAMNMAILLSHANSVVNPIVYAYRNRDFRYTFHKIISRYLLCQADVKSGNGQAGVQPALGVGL
Method: Compounds 1–19 were evaluated for their binding affinity at hA1, hA2A, and hA3 ARs, stably transfected in Chinese hamster ovary (CHO) cells. […].
The binding affinity of the novel compounds was evaluated using radioligand competition experiments in CHO cells stably transfected with hA1 AR, hA2A AR, and hA3 AR subtypes. […]; The potency at hA2B AR, expressed on CHO cells, was determined by inhibition of NECA-stimulated adenylyl cyclase activity. […]
as §1

[3] = molecular target: T3, hA3 AR (Homo sapiens, UniProt P0DMS8); assay: Radioligand binding, displacement of [3H]-HEMADO at hA3 AR in CHO cells; conditions: displacement of specific [3H]-HEMADO binding, mean ± SEM
T3 construct: expressed in transfected cells; host or cells: CHO cells
T3 sequence (P0DMS8 1-318): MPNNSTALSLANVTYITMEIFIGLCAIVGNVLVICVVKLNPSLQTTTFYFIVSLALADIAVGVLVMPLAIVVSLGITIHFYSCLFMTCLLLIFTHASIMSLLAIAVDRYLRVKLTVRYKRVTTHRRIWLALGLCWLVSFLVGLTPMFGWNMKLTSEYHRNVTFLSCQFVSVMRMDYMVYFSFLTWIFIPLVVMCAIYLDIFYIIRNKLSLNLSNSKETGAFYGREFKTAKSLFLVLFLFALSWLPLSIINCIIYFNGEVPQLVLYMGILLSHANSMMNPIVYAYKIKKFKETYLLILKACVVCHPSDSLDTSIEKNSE
Method: CHO cells, stably expressing hARs, were grown adherently and maintained in Dulbecco’s modified Eagle’s medium (DMEM) with nutrient mixture F12 supplemented with 10% fetal bovine serum (FBS), penicillin (100 µg/mL), streptomycin (100 µg/mL), sodium pyruvate (1 mM), and geneticin (0.1 mg/mL).
Briefly, cells were homogenized in cold lysis buffer (5 mM Tris HCl, 2 mM EDTA, pH 7.4), centrifuged at low speed spin for 10 min, and subsequently, the supernatant was spun at 37,000 rpm. Membrane pellet was resuspended in the specific buffer and stored at −80 °C.

[4] = system: mice; assay: Sucrose preference test, LPS-induced anhedonia; assay type: in vivo, mouse; conditions: for Sucrose Preference (%), 6 h / Sucrose Preference (%), 24 h: LPS 1.25 mg kg^−1 i.p. mice; for Sucrose Preference (%), 6 h: 6 h after LPS, vehicle + LPS 42.3 ± 3.1; for Sucrose Preference (%), 24 h: 24 h after LPS, vehicle + LPS 38.0 ± 5.6
Method: Anhedonia, or the inability to experience pleasure, is a common symptom of depression. The mood regulatory role of 18 was studied against anhedonia evaluated in the sucrose preference test in animals treated with lipopolysaccharide (LPS), a model of neuroinflammation-induced depressive-like syndrome. Compound 18 (10 mg kg^−1 and 30 mg kg^−1) was daily p.o administered for five consecutive days. Twenty-four hours after the last 18 treatment, LPS 1.25 mg kg^−1 was intraperitoneally injected. Immediately after LPS injection, mice were placed in cages equipped with two bottles: a bottle of 2% sucrose solution and a bottle of water (unsweetened tap water). The consumption of the 2% sucrose solution was evaluated 6 h and 24 h after LPS injection. Amitriptyline (15 mg kg^−1) was used as the reference drug administered following the same protocol.
Male CD-1 albino mice (22–25 g; Envigo, Varese, Italy) were housed in CeSAL (Centro Stabulazione Animali da Laboratorio, University of Florence, Florence, Italy) and used at least one week after their arrival. Animals were housed in 26 cm × 41 cm cages (12 mice each) and fed with a standard laboratory diet and tap water ad libitum. They were kept at 23 ± 1 °C with a 12 h light/dark cycle, light at 7 a.m. Compound 18 was administered per o.s. whereas amitriptyline was by a s.c. route following the most widely used approach reported in the literature.
Lipopolysaccharide (LPS) from Escherichia coli was purchased from Sigma-Aldrich, (Milan, Italy) freshly dissolved in sterile saline, and injected intraperitoneally (i.p.) at the dose of 1.25 mg kg^−1 [49] after five consecutive days of treatment with compound 18, 1 h after the last administration of the compound. Behavioral tests were performed before 6 h and 24 h after LPS administration.
Mice were placed in cages equipped with a couple of bottles, one containing 2% sucrose solution, the second with water (unsweetened tap water). The consumption of the 2% sucrose solution was evaluated 6 h and 24 h after the beginning of the experiment. The preference index was calculated according to the following formula: preference index = volume consumed sucrose solution/(volume consumed sucrose solution + volume consumed water).
Behavioral tests were performed by visual observation by researchers blinded to the treatments. Results were expressed as means ± SEM, variance was analyzed by ANOVA. A Bonferroni’s significant difference procedure was used as post-hoc comparison. p values of less than 0.05 and 0.01 were considered significant. Data were analyzed using the “Origin 8.1” software.

[5] = 10 mg kg^−1 p.o. daily for 5 days
[6] = 30 mg kg^−1 p.o. daily for 5 days

## Nc1nc(-c2ccco2)nc2sc(Cc3ccccc3F)nc12 [compound 18, 2-(2-Fluorobenzyl)-5-(furan-2-yl)thiazolo[5,4-d]pyrimidin-7-amine]
[1]
  IC50: 360 nM
[2]
  IC50: 384 ± 55 nM
[3]
  Ki: 93.1 ± 2.8 nM
[4]; [5]
  Sucrose Preference (%), 6 h: 48.9 ± 6.7%
  Sucrose Preference (%), 24 h: 39.7 ± 3.7%
[4]; [6]
  Sucrose Preference (%), 6 h: 67.3 ± 1.6 %
  Sucrose Preference (%), 24 h: 64.9 ± 2.6 %
[4]; mouse, 30 mg kg^−1 p.o. daily for 5 days
  Anhedonia-like behavior induced by LPS, preference index (in words): able to revert the anhedonia-like behavior induced by LPS comparably to the effect of amitriptyline
